Experimental data from patent US7708799B2, “Dithiocarbamates and phosphite formulations” (priority 2005, dated 2010).

Tested on: Spores of the fungus Mycosphearella sp
Assay: Spore germination test on amended water agar plates
Assay type: cell-based
Conditions: agar amended with mancozeb alone at 100 ppm; 4×10^5 spores; 12 hours incubation
Procedure: The flowable Calcium formulation (named Calciphite) combination plus Mancozeb as described in the above example was tested for its ability to inhibit spore germination as compared to Mancozeb. Water agar plates were prepared and amended with the Calciphite/mancozeb combination (50 ppm) or mancozeb alone (100 ppm). Spores of the fungus Mycosphearella sp at a spore concentration of 4×10^5 were sprayed onto the surface of the plates and incubated for 12 hours after which the plates were assessed for germination.

Substance: mancozeb
- % spore germination: 81%
